Assay results published in ChEMBL document CHEMBL1201862, “PubChem BioAssay data set” (2004).
Where “and” joins values, the source holds several entries; their conditions need not be identical. Identical values can stand only once.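 Five compound concentrations were applied to cells in 96-well plates for 48 hours; endpoints were derived by simple linear interpolation of the resulting dose-response curve. Abbreviation: GI50, concentration required for 50% inhibition of growth.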 Calls of active or inactive are those of the source. Cut-off read from the data, not from the text of the source: active = GI50 up to about 1.1 µM and inactive = higher.

Key:
Experiment in all cases: NCI anticancer screen, dose series, 48 h
786-0 = system: 786-0
A498 = system: A498
A549 = system: A549
ACHN = system: ACHN
CAKI-1 = system: CAKI-1
CCRF-CEM = system: CCRF-CEM
COLO 205 = system: COLO 205
DU-145 = system: DU-145
EKVX = system: EKVX
HCC 2998 = system: HCC 2998
HCT-116 = system: HCT-116
HCT-15 = system: HCT-15
HL-60 = system: HL-60
HOP-62 = system: HOP-62
HOP-92 = system: HOP-92
HT-29 = system: HT-29
IGROV-1 = system: IGROV-1
K562 = system: K562
KM12 = system: KM12
LOX IMVI = system: LOX IMVI
M14 = system: M14
MCF7 = system: MCF7
MDA-MB-231 = system: MDA-MB-231
MDA-MB-435 = system: MDA-MB-435
MDA-N = system: MDA-N
MOLT-4 = system: MOLT-4
Malme-3M = system: Malme-3M
NCI-H226 = system: NCI-H226
NCI-H23 = system: NCI-H23
NCI-H460 = system: NCI-H460
NCI-H522 = system: NCI-H522
NCI/ADR-RES = system: NCI/ADR-RES
OVCAR-3 = system: OVCAR-3
OVCAR-4 = system: OVCAR-4
OVCAR-5 = system: OVCAR-5
OVCAR-8 = system: OVCAR-8
PC-3 = system: PC-3
RXF 393 = system: RXF 393
SF-268 = system: SF-268
SF-295 = system: SF-295
SF-539 = system: SF-539
SK-MEL-28 = system: SK-MEL-28
SK-MEL-2 = system: SK-MEL-2
SK-MEL-5 = system: SK-MEL-5
SK-OV-3 = system: SK-OV-3
SN12C = system: SN12C
SNB-19 = system: SNB-19
SNB-75 = system: SNB-75
SR = system: SR
SW-620 = system: SW-620
T47D = system: T47D
TK-10 = system: TK-10
U-251 = system: U-251
UACC-257 = system: UACC-257
UACC-62 = system: UACC-62
UO-31 = system: UO-31
RPMI-8226 = system: RPMI-8226
Hs-578T = system: Hs-578T

Structure (SMILES): O=c1c2ccccc2n2c(-c3ccccc3O)nnc2n1-c1ccccc1
- GI50 (786-0): > 100 µM (inactive)
- GI50 (A498): > 100 µM (inactive)
- GI50 (A549): > 100 µM (inactive)
- GI50 (ACHN): > 100 µM (inactive)
- GI50 (CAKI-1): > 100 µM (inactive)
- GI50 (CCRF-CEM): 67.3 µM (inactive)
- GI50 (COLO 205): > 100 µM (inactive)
- GI50 (DU-145): > 100 µM (inactive)
- GI50 (EKVX): > 100 µM (inactive)
- GI50 (HCC 2998): > 100 µM (inactive)
- GI50 (HCT-116): > 100 µM (inactive)
- GI50 (HCT-15): > 100 µM
- GI50 (HL-60): > 100 µM (inactive)
- GI50 (HOP-62): > 100 µM (inactive)
- GI50 (HOP-92): > 100 µM (inactive)
- GI50 (HT-29): > 100 µM (inactive)
- GI50 (IGROV-1): > 100 µM (inactive)
- GI50 (K562): > 100 µM (inactive)
- GI50 (KM12): > 100 µM (inactive)
- GI50 (LOX IMVI): > 100 µM (inactive)
- GI50 (M14): > 100 µM (inactive)
- GI50 (MCF7): > 100 µM (inactive)
- GI50 (MDA-MB-231): > 100 µM (inactive)
- GI50 (MDA-MB-435): > 100 µM (inactive)
- GI50 (MDA-N): > 100 µM (inactive)
- GI50 (MOLT-4): > 100 µM (inactive)
- GI50 (Malme-3M): > 100 µM (inactive)
- GI50 (NCI-H226): > 100 µM (inactive)
- GI50 (NCI-H23): > 100 µM (inactive)
- GI50 (NCI-H460): > 100 µM (inactive)
- GI50 (NCI-H522): > 100 µM (inactive)
- GI50 (NCI/ADR-RES): > 100 µM (inactive)
- GI50 (OVCAR-3): > 100 µM (inactive)
- GI50 (OVCAR-4): > 100 µM (inactive)
- GI50 (OVCAR-5): > 100 µM (inactive)
- GI50 (OVCAR-8): > 100 µM (inactive)
- GI50 (PC-3): > 100 µM (inactive)
- GI50 (RXF 393): > 100 µM (inactive)
- GI50 (SF-268): > 100 µM (inactive)
- GI50 (SF-295): > 100 µM (inactive)
- GI50 (SF-539): > 100 µM (inactive)
- GI50 (SK-MEL-28): > 100 µM (inactive)
- GI50 (SK-MEL-2): > 100 µM (inactive)
- GI50 (SK-MEL-5): > 100 µM (inactive)
- GI50 (SK-OV-3): > 100 µM (inactive)
- GI50 (SN12C): > 100 µM (inactive)
- GI50 (SNB-19): > 100 µM (inactive)
- GI50 (SNB-75): > 100 µM (inactive)
- GI50 (SR): > 100 µM (inactive)
- GI50 (SW-620): > 100 µM (inactive)
- GI50 (T47D): > 100 µM (inactive)
- GI50 (TK-10): > 100 µM (inactive)
- GI50 (U-251): > 100 µM (inactive)
- GI50 (UACC-257): > 100 µM (inactive)
- GI50 (UACC-62): > 100 µM (inactive)
- GI50 (UO-31): 2.76 µM (inactive)

Structure (SMILES): CC(Nc1n[nH]c(=O)c2c1nnn2Cc1ccccc1)c1ccccc1 (stereo unspecified)
- GI50 (786-0): 16.5 µM (inactive)
- GI50 (A549): 23.8 µM (inactive) and 36 µM (inactive)
- GI50 (ACHN): 52.7 µM (inactive)
- GI50 (CAKI-1): 18.6 µM (inactive) and 34.1 µM (inactive)
- GI50 (CCRF-CEM): > 100 µM (inactive)
- GI50 (COLO 205): 77.4 µM (inactive) and 96.2 µM (inactive)
- GI50 (DU-145): > 100 µM (inactive)
- GI50 (EKVX): > 100 µM (inactive)
- GI50 (HCC 2998): > 100 µM (inactive)
- GI50 (HCT-116): 24.3 µM (inactive) and 27.5 µM (inactive)
- GI50 (HCT-15): > 100 µM
- GI50 (HOP-92): 22.8 µM (inactive) and 23.9 µM (inactive)
- GI50 (HT-29): 12.2 µM (inactive)
- GI50 (KM12): > 100 µM (inactive)
- GI50 (M14): > 100 µM (inactive)
- GI50 (MCF7): 31.9 µM (inactive) and 29.1 µM (inactive)
- GI50 (MDA-MB-435): 17.3 µM (inactive) and 22.3 µM (inactive)
- GI50 (MOLT-4): 56.9 µM (inactive) and 37.2 µM (inactive)
- GI50 (NCI/ADR-RES): > 100 µM (inactive) and 57.8 µM (inactive)
- GI50 (OVCAR-3): > 100 µM (inactive) and 53.5 µM (inactive)
- GI50 (OVCAR-5): > 100 µM (inactive)
- GI50 (RPMI-8226): 72.8 µM (inactive)
- GI50 (SF-295): 34.4 µM (inactive) and 17.8 µM (inactive)
- GI50 (SK-MEL-28): > 100 µM (inactive) and 55.1 µM (inactive)
- GI50 (SK-MEL-5): 18.8 µM (inactive) and 21.5 µM (inactive)
- GI50 (SN12C): > 100 µM (inactive)
- GI50 (U-251): 26.1 µM (inactive) and 37.1 µM (inactive)
- GI50 (UACC-257): 50.6 µM (inactive) and 71 µM (inactive)

Structure (SMILES): CN(C)C(=O)Nc1cc2c3c(c1)CCCN3CCC2
- GI50 (786-0): > 10 µM (inactive)
- GI50 (A498): 4.57 µM (inactive)
- GI50 (A549): > 10 µM (inactive)
- GI50 (ACHN): > 10 µM (inactive)
- GI50 (CAKI-1): > 10 µM (inactive)
- GI50 (CCRF-CEM): > 10 µM (inactive)
- GI50 (COLO 205): > 10 µM (inactive)
- GI50 (DU-145): > 10 µM (inactive)
- GI50 (EKVX): > 10 µM (inactive)
- GI50 (HCC 2998): > 10 µM (inactive)
- GI50 (HCT-116): > 10 µM (inactive)
- GI50 (HCT-15): > 10 µM
- GI50 (HL-60): > 10 µM (inactive)
- GI50 (HOP-62): > 10 µM (inactive)
- GI50 (HOP-92): > 10 µM (inactive)
- GI50 (HT-29): > 10 µM (inactive)
- GI50 (Hs-578T): > 10 µM (inactive)
- GI50 (IGROV-1): > 10 µM (inactive)
- GI50 (K562): > 10 µM (inactive)
- GI50 (KM12): > 10 µM (inactive)
- GI50 (LOX IMVI): > 10 µM (inactive)
- GI50 (M14): > 10 µM (inactive)
- GI50 (MCF7): > 10 µM (inactive)
- GI50 (MDA-MB-231): > 10 µM (inactive)
- GI50 (MDA-MB-435): > 10 µM (inactive)
- GI50 (MDA-N): > 10 µM (inactive)
- GI50 (MOLT-4): > 10 µM (inactive)
- GI50 (Malme-3M): > 10 µM (inactive)
- GI50 (NCI-H226): > 10 µM (inactive)
- GI50 (NCI-H23): > 10 µM (inactive)
- GI50 (NCI-H460): > 10 µM (inactive)
- GI50 (NCI-H522): > 10 µM (inactive)
- GI50 (NCI/ADR-RES): > 10 µM (inactive)
- GI50 (OVCAR-3): > 10 µM (inactive)
- GI50 (OVCAR-4): > 10 µM (inactive)
- GI50 (OVCAR-8): > 10 µM (inactive)
- GI50 (PC-3): > 10 µM (inactive)
- GI50 (RPMI-8226): > 10 µM (inactive)
- GI50 (RXF 393): > 10 µM (inactive)
- GI50 (SF-268): > 10 µM (inactive)
- GI50 (SF-295): > 10 µM (inactive)
- GI50 (SF-539): > 10 µM (inactive)
- GI50 (SK-MEL-28): > 10 µM (inactive)
- GI50 (SK-MEL-2): > 10 µM (inactive)
- GI50 (SK-MEL-5): > 10 µM (inactive)
- GI50 (SK-OV-3): > 10 µM (inactive)
- GI50 (SN12C): > 10 µM (inactive)
- GI50 (SNB-19): > 10 µM (inactive)
- GI50 (SNB-75): > 10 µM (inactive)
- GI50 (SR): > 10 µM (inactive)
- GI50 (SW-620): > 10 µM (inactive)
- GI50 (T47D): > 10 µM (inactive)
- GI50 (TK-10): > 10 µM (inactive)
- GI50 (U-251): > 10 µM (inactive)
- GI50 (UACC-257): > 10 µM (inactive)
- GI50 (UACC-62): > 10 µM (inactive)
- GI50 (UO-31): > 10 µM (inactive)
